Assay results published in patent US12453778B2, “Incremental dose finding in controlled-release PTH compounds” (Ascendis Pharma Bone Diseases A/S, priority 2016, dated 2025).
Read-outs that look alike come from different tables or passages of the source.

Tests used:
[1] = pump delivery, over 6-months; cited from earlier work
[2] = cited from earlier work; for osteosarcoma rate: rats, daily injections
[3] = Dose range finding / dose adjustment study with daily subcutaneous injections of TransCon PTH; design: time of peak calcium concentration postdose / increases in calcium to pre-study levels / calcium increases: dose or concentration left out as unconfirmed; conditions: for sCa compared to pre-study levels: severe hypercalcaemic levels
Experimental: Dose Range Finding Study—Dose Adjustment Study in Cynomolgus Monkeys with Daily Subcutaneous Injections with TransCon PTH
This study was conducted in order to test the hypothesis of performing dose adjustments with TransCon PTH in 25% increments in response to hypocalcemia or hypercalcemia. The study was performed in male and female Cynomolgus monkeys. Four groups with one male and one female animal in each were dosed for four weeks starting at doses 0.2, 0.5, 1.0 and 2.0 μg/kg/day, respectively. Serum calcium (sCa) levels in the animals were measured pre-dose and post-dose on days -6, 1, 3, 7, 8, 12, 14, 16, 19, 23, 26, 28 and 29.

[4] = cited from earlier work
[5] = 6-year follow-up; cited from earlier work

| Molecule | calcium levels [1] | osteosarcoma rate [2] | sCa compared to pre-study levels ([3]; Day 3, female dosed at 2.0 μg/kg/day) [×] | sCa compared to pre-study levels ([3]; Day 3, male dosed at 2.0 μg/kg/day) | time of peak calcium concentration postdose ([3]; Day 23, male) [h] | increases in calcium to pre-study levels ([3]; Day 26, male and female) | calcium increases ([3]; Day 29, both sexes) | tolerability ([3]; daily subcutaneous administration at 0.2, 0.5 and 1.0 jag/kg/day for 28 days) | urinary calcium excretion ([4]; 2-8 hours after injection) | urinary phosphate excretion ([4]; after injection) | patients developing hypercalcemia at one or more measurements ([4]; during a 24-hour period after injection) [%] | participants achieving normal blood calcium levels on reduced doses of calcium supplements and active forms of vitamin D ([4]; once-daily subcutaneous injection, pivotal trial) [%] | urinary calcium excretion ([4]; over the 24-hour period) | BMD by DXA [5] | bone turnover markers [5] | deaths in high dose group ([2]; high dose rats, dosing discontinued, primarily from metastatic osteosarcoma) |
| --- | --- | --- | --- | --- | --- | --- | --- | --- | --- | --- | --- | --- | --- | --- | --- | --- |
| CC[C@H](C)[C@H](NC(=O)[C@H](CCC(=O)O)NC(=O)[C@H](CO)NC(=O)[C@@H](NC(=O)[C@@H](N)CO)C(C)C)C(=O)N[C@@H](CCC(N)=O)C(=O)N[C@@H](CC(C)C)C(=O)N[C@@H](CCSC)C(=O)N[C@@H](Cc1cnc[nH]1)C(=O)N[C@@H](CC(N)=O)C(=O)N[C@@H](CC(C)C)C(=O)NCC(=O)N[C@@H](CCCCN)C(=O)N[C@@H](Cc1cnc[nH]1)C(=O)N[C@@H](CC(C)C)C(=O)N[C@@H](CC(N)=O)C(=O)N[C@@H](CO)C(=O)N[C@@H](CCSC)C(=O)N[C@@H](CCC(=O)O)C(=O)N[C@@H](CCCN=C(N)N)C(=O)N[C@H](C(=O)N[C@@H](CCC(=O)O)C(=O)N[C@@H](Cc1c[nH]c2ccccc12)C(=O)N[C@@H](CC(C)C)C(=O)N[C@@H](CCCN=C(N)N)C(=O)N[C@@H](CCCCN)C(=O)N[C@@H](CCCCN)C(=O)N[C@@H](CC(C)C)C(=O)N[C@@H](CCC(N)=O)C(=O)N[C@@H](CC(=O)O)C(=O)N[C@H](C(=O)N[C@@H](Cc1cnc[nH]1)C(=O)N[C@@H](CC(N)=O)C(=O)N[C@@H](Cc1ccccc1)C(=O)O)C(C)C)C(C)C [PTH(1-34)] | normal, steady state calcium levels with minimal fluctuation | dose dependent increase |  |  |  |  |  |  |  |  |  |  |  |  |  |  |
| TransCon PTH: controlled-release PTH compound administered subcutaneously to cynomolgus monkeys; not tied to a numbered conjugate |  |  | ≤ 1.34 | up to 1.42 × | 4 | up to 1.17 × | still present | well tolerated |  |  |  |  |  |  |  |  |
| PTH(1-84): Natpara, PTH(1-84), approved 2015 for once-daily subcutaneous injection in hypoparathyroidism; SEQ ID NO: 1 |  | dose dependent increase |  |  |  |  |  |  | reduced | increased only during the first 8 hours | 71 | 42 | did not change | increases in lumbar spine and declines in distal ⅓ radius | remained greater than pretreatment values | excessive deaths |
